Assay results reported in patent publication US6214805A, “RNase L activators and antisense oligonucleotides effective to treat RSV infections” (priority 1997, dated 2001).
Read-outs that look alike come from different tables or passages of the source.

Columns and labels:
MA-104 cells = assay: Cytotoxicity graded by morphological change in MA-104 cells; format: cell-based, African green monkey; conditions: MA-104 cells (Table 8); read-out: IC50 Conc. for 50% cytotoxicity grade by morphological change
Procedure: (§1) Embryonic African green monkey kidney cells (MA-104) were obtained from BioWhittaker, Inc. (Walkersville, Md.). HEp-2 cells were propagated from a human epidermoid carcinoma of the larynx (American Type Culture Collection, ATCC; Rockville, Md.). The cells were grown in minimal essential medium. (MEM, Gibco-BRL, Gaitherburg, Md.) supplemented with 0.1% NaHCO3 and 10% fetal bovine serum (FBS, Hyclone Laboratories, Logan Utah.). When performing antiviral assays, serum was reduced to 2% and 50 μg/ml gentamicin (Sigma Chemical Company, St. Louis, Mo.) was added to the medium.
(§2) Morphological changes due to compound cytotoxicity were graded on a scale of 0-5; grade 5 was defined as 100% cytotoxicity. The 50% cytotoxic dose (IC50 was calculated by regression analysis. A selective index (S.I.) was calculated for each compound [S.I.=(IC50)/(EC50 ].
IC50 Conc. for 50% cytotoxicity grade by morphological change (microM)
(§3) Determined in MA-104 cells, A2 strain RSV

Hep-2 Cells [1] = assay: Neutral red uptake assay of cytotoxicity in HEp-2 cells; format: cell-based, human
Procedure: as §1
(§4) This assay was performed by a modified method as described by Cavenaugh et al. (Cavenaugh et al. 1990, Invest. New Drugs 8:347-354). Briefly, medium was removed from each well of a plate scored for CPE from a CPE inhibition assay, 0.2 ml of neutral red (0.034% in PSS) was added to each of the wells of that plate and the plate incubated for 2 hr at 37° C. in the dark. The neutral red solution was removed from the wells and the wells rinsed twice with PBS (pH 7.4). Equal volumes (0.1 ml) of absolute ethanol and Sorenson citrate buffer (0.1 M sodium citrate, 0.1 M HCI, pH 4.2) were mixed together and added to each well. Plates were incubated in the dark for 30 min. at room temperature to solubilize the dye. The plates were then gently mixed on a 96-well plate adapted vortexer for 1 min. Absorbances at 540 nm and 450 nm were read with a microplate reader (Bio-Tek EL 1309; Bio-Tek Instruments, Inc. Winooski, Vt.). Absorbance values were expressed as percents of untreated controls and EC50 and IC50 values were calculated by regression analysis.

RSV Long (A) [2] = assay: Neutral red uptake assay in HEp-2 cells, RSV strain Long; format: cell-based, Respiratory syncytial virus; conditions: Table 12, neutral red, once a day for two days
Procedure: as §4
(§5) In this series, MP351 was added once a day for two days with fresh medium

RSV CH18537 (B) [3] = assay: CPE inhibition assay in HEp-2 cells, RSV strain CH18537; format: cell-based, Respiratory syncytial virus; conditions: Table 12, CPE, once a day for two days
Procedure: (§6) The CPE inhibition assay used in this study was performed as described by Sidwell and Huffman (Sidwell et al., 1971, Appl. Microbiol. 22:7979-7801) with slight modifications. Varying concentrations of test compounds were added to each plate containing near confluent cell monolayers (1×10^5 cells/well) followed immediately by the addition of virus at a multiplicity of infection (MOI)=0.01, and then incubated at 37° C. On the following day, the medium from each plate was removed and fresh compound added. The assay was stopped at the end of the sixth day when the virus cytopathic effect in the virus infected, untreated control cells affected all cells. All compounds were assayed for virus inhibition in quadruplicate and for cytotoxicity in duplicate. For each compound, two wells were set aside as uninfected, untreated cell controls per test and four wells per test received virus only and represented controls for virus replication. […] For all CPE-based assays, the 50% effective concentration (EC50) was calculated by regression analysis using the means of the CPE ratings at each concentration of compound.
as §5

RSV strain A2 [4] = assay: Virus yield reduction assay in HEp-2 cells; format: cell-based, Respiratory syncytial virus; conditions: compound added twice daily
Procedure: EC50 & EC90 : concentration required to reduce virus (RSV strain
Both compounds were added to the cells twice daily.

Hep-2 Cells [5] = assay: Cytotoxicity by morphological changes in HEp-2 cells (CPE inhibition assay); format: cell-based, human
Procedure: as §1, §2

[6] = system: RSV 393 (clinical isolate); assay: CPE inhibition assay in HEp-2 cells, RSV 393; format: cell-based, Respiratory syncytial virus; conditions: Table 12, CPE, once a day for two days
Procedure: as §6, §5

RSV CH18537 (B) [7] = assay: Neutral red uptake assay in HEp-2 cells, RSV strain CH18537; format: cell-based, Respiratory syncytial virus; conditions: Table 12, neutral red, once a day for two days
Procedure: as §4, §5

RSV strain A2 [8] = assay: Neutral red uptake assay of CPE inhibition in HEp-2 cells; format: cell-based, Respiratory syncytial virus; conditions: read-out: EC50
Procedure: as §4

RSV Long (A) [9] = assay: CPE inhibition assay in HEp-2 cells, RSV strain Long; format: cell-based, Respiratory syncytial virus; conditions: Table 12, CPE, once a day for two days
Procedure: as §6, §5

A2 strain RSV = assay: CPE inhibition assay in MA-104 cells; format: cell-based, Respiratory syncytial virus
Procedure: as §6
EC50 Concentration for 50% inhibition of virus replication (microM)
as §3

[10] = system: RSV 393 (clinical isolate); assay: Neutral red uptake assay in HEp-2 cells, RSV 393; format: cell-based, Respiratory syncytial virus; conditions: Table 12, neutral red, once a day for two days
Procedure: as §4, §5

RSV strain A2 [11] = assay: CPE inhibition assay in HEp-2 cells; format: cell-based, Respiratory syncytial virus; conditions: Table 10, CPE; B.I.D. 3 days; HEp2; read-out: EC50
Procedure: as §6, with “On the following day, the medium from each plate was removed and fresh compound added. The assay was stopped at the end of the sixth day when the virus cytopathic effect in the virus infected, untreated control cells affected all cells.” left out

RSV M2 RNA = assay: RT-PCR of M2 RNA from RSV-infected 9HTE cells; format: cell-based, Respiratory syncytial virus; conditions: RNA at 8 h post-infection, M.O.I.=10
Procedure: To determine if RSV RNA levels correlated with antiviral activity, RT-PCR analysis was performed on RNA isolated from RSV-infected and uninfected 9HTE cells with and without treatment with spA4 -antiRSV3'3'T/(8281-8299) or spA4 -antiRSV3'3'A/(8530-8547). An M2 RNA sequence in RSV (from nucleotides 7879 to 8465) was converted to cDNA and amplified by PCR. M2 RNA from the RSV-infected cells produced an RT-PCR DNA product that was clearly visible. […] Levels of GAPDH transcripts were similar in all of these RNA preparations.
RNA was collected from 2×10^5 9HTE cells at 8 h post-infection (M.O.I.=10) by RNAzol treatment as described by the manufacturer (Tel-Test, Inc, Freindswood, Tex.). RNA was isolated after 8 h to limit RSV replication to a single cycle. Isolated RNA (≈1 μg) was incubated with 100 pmoles of the appropriate downstream (-) primer listed below or 100 pmoles of random hexamer (used for glyceraldehyde-3-phosphatedehydrogenase, GAPDH, mRNA only). RNA and primers were heated to 70° C. for 10 min then cooled rapidly on ice for 5 min. […]
25 μl Hot-Start upper buffer contained 5 U Taq DNA polymerase (GibcoBRL) and 1/10th of the cDNA from the RT reaction. […] Aliquots of the RT/PCR mixtures were analyzed on 1% agarose/TBE gels.

[12] = Table 11, neutral red, q.d. 3 days, HEp2

Substance: 2-5A-L2-AsAsAsAATGGGGCAAAsTsAsA [MP351]
- IC50 (MA-104 cells): > 10 µM
- IC50 (Hep-2 Cells [1]; Table 11, neutral red, B.I.D. 2 days, HEp2): 3.2 µM
- IC50 (Hep-2 Cells [1]; Table 11, neutral red, B.I.D. 3 days, HEp2): > 3.2 µM
- IC50 (Hep-2 Cells [1]; Table 11, neutral red, B.I.D. 4 days, HEp2): 3.2 µM
- IC50 (Hep-2 Cells [1]; Table 11, neutral red, q.d. 1 day (added along with virus, never replenished), HEp2): > 3.2 µM
- IC50 (Hep-2 Cells [1]; [12]): 2 µM
- IC50 (Hep-2 Cells [1]; Table 11, neutral red, q.d. 4 days, HEp2): > 3.2 µM
- IC50 (Hep-2 Cells [1]; Table 12, neutral red, test with 393 (clinical isolate), HEp-2): > 3.2 µM
- IC50 (Hep-2 Cells [1]; Table 12, neutral red, test with CH18537 (B), HEp-2): 2.4 µM
- IC50 (Hep-2 Cells [1]; Table 12, neutral red, test with Long (A), HEp-2): 2 µM
- IC50 (Hep-2 Cells [1]; Table 13, neutral red, q.d., Day 0, HEp-2): > 3.2 µM
- IC50 (Hep-2 Cells [1]; Table 13, neutral red, q.d., Day 1, HEp-2): > 3.2 µM
- IC50 (Hep-2 Cells [1]; Table 13, neutral red, q.d., Day 2, HEp-2): 2.2 µM
- EC50 (RSV Long (A) [2]): 0.4 µM
- EC50 (RSV CH18537 (B) [3]): 0.1 µM
- EC50 (RSV strain A2 [4]; virus yield reduced by 50%): 0.32 µM
- EC90 (RSV strain A2 [4]; virus yield reduced by 90%): 1 µM
- IC50 (Hep-2 Cells [5]; Table 10, CPE, B.I.D. 2 days, HEp2): > 3.2 µM
- IC50 (Hep-2 Cells [5]; Table 10, CPE, B.I.D. 3 days, HEp2): > 3.2 µM
- IC50 (Hep-2 Cells [5]; Table 10, CPE, B.I.D. 4 days, HEp2): 3.2 µM
- IC50 (Hep-2 Cells [5]; Table 10, CPE, q.d. 1 day (added along with virus, never replenished), HEp2): > 3.2 µM
- IC50 (Hep-2 Cells [5]; Table 10, CPE, q.d. 3 days, HEp2): > 3.2 µM
- IC50 (Hep-2 Cells [5]; Table 10, CPE, q.d. 4 days, HEp2): > 3.2 µM
- IC50 (Hep-2 Cells [5]; Table 12, CPE, test with 393 (clinical isolate), HEp-2): > 3.2 µM
- IC50 (Hep-2 Cells [5]; Table 12, CPE, test with CH18537 (B), HEp-2): > 3.2 µM
- IC50 (Hep-2 Cells [5]; Table 12, CPE, test with Long (A), HEp-2): > 3.2 µM
- IC50 (Hep-2 Cells [5]; Table 13, CPE, q.d., Day 0, HEp-2): > 3.2 µM
- IC50 (Hep-2 Cells [5]; Table 13, CPE, q.d., Day 1, HEp-2): > 3.2 µM
- IC50 (Hep-2 Cells [5]; Table 13, CPE, q.d., Day 2, HEp-2): 2.2 µM
- EC50 [6]: 0.3 µM
- EC50 (RSV CH18537 (B) [7]): 0.1 µM
- EC50 (RSV strain A2 [8]; [12]): 0.05 µM
- EC50 (RSV strain A2 [8]; Table 13, neutral red, q.d., fresh compound up to Day 1 post infection, HEp-2): 0.32 µM
- EC50 (RSV Long (A) [9]): 0.3 µM
- EC50 (A2 strain RSV; MA104 cells, CPE assay, added once or once daily for 2 days, read-out: EC50): 1 µM
- EC50 (A2 strain RSV; MA-104 cells, A2 strain RSV (Table 8), read-out: EC50 Concentration for 50% inhibition of virus replication): 0.3 µM
- EC50 [10]: 1.6 µM
- EC50 (RSV strain A2 [11]): 0.04 µM

Substance: spA2'p(A2'p)3 -[(Bu)p]2 -(5'cta tcg gtt aga taa ac3'-3'a5') [spA4-antiRSV3'-3'A/(8530-8547)]
- inhibition of levels of M2 RNA (RSV M2 RNA): 17%
